In PMC11858854, “In Vitro and In Vivo Assessment of Pharmacokinetic Profile of Peramivir in the Context of Inhalation Therapy” (Pharmaceuticals, 2025):

Tests used:
[1] = system: NCI-H441/dTHP co-culture model; assay: Bidirectional transport, NCI-H441/dTHP co-culture model; assay type: in vitro ADME, human; settings: for ER: NCI-H441/dTHP, 2 μM
Experimental: (§1) THP-1 cells were cultured in RPMI-1640 medium (Gibco, Thermo, CA, USA) supplemented with 10% FBS, PS (100 U/mL), and β-Mer (0.05 mM) at 37 °C in a humidified 5% CO2 incubator, and the medium was changed every other day. THP-1 cells were seeded at 4 × 10^5 cells/mL in six-well plates and induced for 48 h by adding medium containing a final concentration of 100 ng/mL PMA.
(§2) Then, the differentiated cells were seeded at 5 × 10^4 cells/well on the surface of NCI-H441 cells 10 days after air–liquid culture and continued to co-culture for 24 h.
(§3) We removed the liquid from the apical and basolateral of the Transwell, rinsed the cells three times with a buffer containing HBSS, 10 mM Hepes, and 0.1% BSA (Buffer A), and then added Buffer A (100 µL for the apical side and 600 µL for the basolateral side) for pre-incubation for 30 min at 37 °C. For the transport studies in the apical to basolateral (A-B) direction, 100 μL of pre-warmed test solution (Buffer A containing 2 µM positive control drugs or peramivir) was added to the apical side, while 600 μL of pre-warmed assay buffer, a buffer containing HBSS, 10 mM Hepes, and 1% BSA (Buffer B), was added to the basolateral compartment.

[2] = Permeability assay, LLC-PK1-MOCK cells; assay type: in vitro ADME; settings: pig, LLC-PK1, 2 μM; for Papp A→B at 2 h, 2 µM / Papp B→A at 2 h, 2 µM: Mean ± SD, n = 3; for efflux ratio at 2 h, 2 µM: read-out: ER
Experimental: (§5) When the cell transport system was mature in culture, experiments were performed. […] When assessing permeability in basolateral to apical (B-A) direction, 100 μL of pre-warmed Buffer B and 600 μL of pre-warmed test solutions were added to the apical and basolateral compartments, respectively. The Transwells® were placed in an incubator at 37 °C and 5% CO2 for a duration of 2 h. At the end of the incubation period, the samples in the apical and basolateral sides were collected separately and were briefly kept at a temperature of −40 °C for LC-MS/MS analysis. […] The cells were transferred to Transwell® plates (Corning, NY, USA) at a density of 2 × 10^4 cells/well with 200 μL of cell suspension per well, while 850 μL of complete medium was added to the basolateral chamber. […] The samples were collected separately and were briefly kept at a temperature of −40 °C for LC-MS/MS analysis.

[3] = Bidirectional transport, Calu-3 air-liquid culture model; settings: human
P-gp = assay: as above; settings: human, with tariquidar 5 µM
P-gp (MDR1) = P-gp (MDR1) (Homo sapiens, UniProt P08183); assay: Permeability assay, LLC-PK1-MDR1 cells overexpressing P-gp; settings: for Papp B→A at 2 h, 2 µM / efflux ratio at 2 h, 2 µM: human, LLC-PK1
P-gp (MDR1), sequence (P08183 whole entry): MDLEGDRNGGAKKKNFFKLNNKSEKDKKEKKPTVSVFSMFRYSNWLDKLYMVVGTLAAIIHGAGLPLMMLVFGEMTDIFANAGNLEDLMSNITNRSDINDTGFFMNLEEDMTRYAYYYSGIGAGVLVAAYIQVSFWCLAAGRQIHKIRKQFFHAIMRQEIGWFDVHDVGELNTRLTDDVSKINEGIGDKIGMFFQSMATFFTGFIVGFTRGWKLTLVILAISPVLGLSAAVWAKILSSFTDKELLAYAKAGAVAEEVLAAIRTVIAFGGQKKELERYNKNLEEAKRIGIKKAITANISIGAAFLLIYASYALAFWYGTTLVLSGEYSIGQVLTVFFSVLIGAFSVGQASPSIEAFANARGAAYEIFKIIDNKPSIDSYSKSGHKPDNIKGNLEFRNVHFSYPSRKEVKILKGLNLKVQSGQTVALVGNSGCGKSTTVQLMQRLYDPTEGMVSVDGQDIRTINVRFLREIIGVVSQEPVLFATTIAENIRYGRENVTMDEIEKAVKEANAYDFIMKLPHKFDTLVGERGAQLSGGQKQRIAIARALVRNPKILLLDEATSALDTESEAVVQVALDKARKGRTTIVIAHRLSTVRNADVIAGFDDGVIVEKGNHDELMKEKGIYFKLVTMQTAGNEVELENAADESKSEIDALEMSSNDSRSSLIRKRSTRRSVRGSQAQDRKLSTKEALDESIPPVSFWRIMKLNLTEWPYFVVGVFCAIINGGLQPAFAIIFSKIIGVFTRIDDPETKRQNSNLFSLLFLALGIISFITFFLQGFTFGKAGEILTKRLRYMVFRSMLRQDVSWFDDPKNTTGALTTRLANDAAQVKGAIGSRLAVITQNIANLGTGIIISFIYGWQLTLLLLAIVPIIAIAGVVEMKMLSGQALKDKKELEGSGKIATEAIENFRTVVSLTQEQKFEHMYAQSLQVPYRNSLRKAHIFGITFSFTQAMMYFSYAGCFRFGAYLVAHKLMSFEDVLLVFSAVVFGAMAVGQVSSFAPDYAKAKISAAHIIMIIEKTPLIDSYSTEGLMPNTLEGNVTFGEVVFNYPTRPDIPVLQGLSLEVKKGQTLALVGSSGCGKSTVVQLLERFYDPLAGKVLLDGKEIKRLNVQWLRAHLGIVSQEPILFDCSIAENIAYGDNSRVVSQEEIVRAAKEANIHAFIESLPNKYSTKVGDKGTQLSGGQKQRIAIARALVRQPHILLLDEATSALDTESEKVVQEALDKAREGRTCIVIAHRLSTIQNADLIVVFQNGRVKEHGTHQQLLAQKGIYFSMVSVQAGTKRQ
Experimental: as §5

human MDR1 (P-gp) = human MDR1 (P-gp) (Homo sapiens, UniProt P08183); assay: as above; settings: LLC-PK1-MDR1, 2 μM, Mean ± SD, n = 3
human MDR1 (P-gp), sequence (P08183 whole entry): as above
Experimental: as §5

NCI-H441 cell model = assay: Bidirectional transport, NCI-H441 air-liquid culture model; assay type: in vitro ADME, human
Experimental: (§4) NCI-H441 cells were cultured in RPMI-1640 medium (Gibco, Thermo, CA, USA) supplemented with 10% FBS and PS (100 U/mL) at 37 °C in a humidified 5% CO2 incubator, and the medium was changed every other day. […] Then, 850 μL of complete medium (containing 200 nM dexamethasone) was added to the basolateral chamber. […] Subsequently, an air-interfaced culture (AIC) was initiated by supplying 650 μL of culture medium to the basolateral chamber only. The culture medium was replaced every other day.
as §3

Calu-3 cell model = assay: Bidirectional transport, Calu-3 air-liquid culture model; settings: Calu-3, about 14 days air–liquid interface
[4] = Bidirectional transport, NCI-H441 air-liquid culture model; assay type: in vitro ADME, human; settings: human, NCI-H441, 2 μM; for Papp A→B at 2 h, 2 µM / Papp B→A at 2 h, 2 µM: Mean ± SD, n = 3
Experimental: as §4, §3

[5] = Bidirectional transport, NCI-H441/dTHP co-culture model; assay type: in vitro ADME, human; settings: human; NCI-H441/dTHP, 2 μM, Mean ± SD, n = 3
Experimental: as §1, §2, §3

BCRP = assay: Bidirectional transport, NCI-H441 air-liquid culture model; assay type: in vitro ADME, human; settings: human, with ko143 5 µM; NCI-H441, topotecan 2 μM with BCRP inhibitor ko143 (5 μM); read-out: ER value, inhibitor group
Experimental: as §4, §3

[6] = administered orally; cited from earlier work

| ER [1] | Papp A→B at 2 h, 2 µM [2] [×10⁻⁶ cm/s] | Papp B→A at 2 h, 2 µM [2] [×10⁻⁶ cm/s] | efflux ratio at 2 h, 2 µM [2] | Papp A→B at 2 h, 2 µM [3] [×10⁻⁶ cm/s] | Papp B→A at 2 h, 2 µM [3] [×10⁻⁶ cm/s] | Papp B→A at 2 h, 2 µM (P-gp (MDR1)) [×10⁻⁶ cm/s] | efflux ratio at 2 h, 2 µM (P-gp (MDR1)) | Papp A→B at 2 h, 2 µM [4] [×10⁻⁶ cm/s] | Papp B→A at 2 h, 2 µM [4] [×10⁻⁶ cm/s] | Papp A→B at 2 h, 2 µM [5] [×10⁻⁶ cm/s] | Papp B→A at 2 h, 2 µM [5] [×10⁻⁶ cm/s] | Compound | also measured |
| --- | --- | --- | --- | --- | --- | --- | --- | --- | --- | --- | --- | --- | --- |
| 0.88 | – | – | – | – | – | – | – | – | – | – | – | CC(C)NCC(O)COc1ccc(CC(N)=O)cc1 (stereo not drawn) [Atenolol] | – |
| – | 1.64 ± 0.27 | 2.22 ± 0.36 | 1.35 | 0.66 ± 0.02 | 25.1 ± 7.18 | 9.76 ± 0.73 | 13.1 | – | – | – | – | C[C@H]1O[C@@H](O[C@H]2[C@@H](O)C[C@H](O[C@H]3[C@@H](O)C[C@H](O[C@H]4CC[C@@]5(C)[C@H](CC[C@@H]6[C@@H]5C[C@@H](O)[C@]5(C)[C@@H](C7=CC(=O)OC7)CC[C@]65O)C4)O[C@@H]3C)O[C@@H]2C)C[C@H](O)[C@@H]1O [Digoxin] | efflux ratio at 2 h, 2 µM (P-gp): ~1; Papp A-B (human MDR1 (P-gp)): 0.74 ± 0.15 ×10−6 cm/s |
| – | – | – | – | – | – | – | – | – | – | – | – | NNC(=O)NN1C(=O)c2cc(S(=O)(=O)[O-])cc3c(N)c(S(=O)(=O)[O-])cc(c23)C1=O.[K+].[K+] [Lucifer yellow CH dipotassium salt] | permeability value (barrier integrity) (NCI-H441 cell model; NCI-H441, about 7 days air–liquid interface): < 2 ×10⁻⁶ cm/s; permeability value (barrier integrity) ([1]; NCI-H441/dTHP co-culture 24 h): < 2 ×10⁻⁶ cm/s; permeability value (barrier integrity) (Calu-3 cell model): < 2 ×10⁻⁶ cm/s |
| 0.90 | 28.5 ± 2.17 | 25.6 ± 3.71 | 0.9 | 29.8 ± 2.28 | 21.9 ± 3.73 | 23.1 ± 1.94 | 1.13 | 25.6 ± 5.45 | 23.4 ± 2.96 | 27.9 ± 7.99 | 24.36 ± 0.22 | COCCc1ccc(OCC(O)CNC(C)C)cc1 (stereo not drawn) [Metoprolol] | ER (NCI-H441 cell model; NCI-H441, 2 μM): 0.91; efflux ratio at 2 h, 2 µM [3]: 29.8 ± 2.28; Papp A→B at 2 h, 2 µM (P-gp (MDR1)): 20.4 ± 1.24 ×10⁻⁶ cm/s |
| 2.15 | – | – | – | – | – | – | – | 1.54 ± 0.12 | 3.47 ± 0.26 | 2.88 ± 0.55 | 6.18 ± 1.63 | CC[C@@]1(O)C(=O)OCc2c1cc1n(c2=O)Cc2cc3c(CN(C)C)c(O)ccc3nc2-1 [Topotecan] | efflux ratio at 2 h, 2 µM ([4]; read-out: ER): 2.25; efflux ratio at 2 h, 2 µM (BCRP): ~1 |
| – | – | – | – | – | – | – | – | – | – | – | – | CC(=O)N[C@H]1[C@H]([C@H](O)[C@H](O)CO)OC(C(=O)O)=C[C@@H]1N=C(N)N [zanamivir] | absolute bioavailability [6]: approximately 2% |
